Molecules are shown by their SMILES.

A short description of experiment [1]: Potency relative to NADH oxidase activity of Laherradurin.
For experiment [2], the species on record is Bos taurus. Nature of the experiment: Relative inhibition of NADH-ubiquinone oxidoreductase (DB) and NADH oxidase activity. Format: functional.
Experiment [3] deals with Mitochondrial complex I; NADH oxidoreductase (Bos taurus, UniProt P25708+P52505). Nature of the experiment: Inhibition of NADH oxidase activity in sub-mitochondrial particles from bovine heart. The class given is functional.
The species named for experiment [4] is Bos taurus. Nature of the experiment: Inhibition of NADH-ubiquinone oxidoreductase using decylubiquinone (DB) acceptor. The class given is functional.
For experiment [5], the species on record is Bos taurus. Nature of the experiment: Relative NADH oxidase activity compared to Laherradurin and 36-dihydroisorolliniastatin-1. Format: functional.
Experiment [6] in a line: Potency relative to NADH oxidase activity of and 36-dihydroisorolliniastatin-1.

Chain of Mitochondrial complex I; NADH oxidoreductase (P25708 21-464 limits assumed, other chains not shown): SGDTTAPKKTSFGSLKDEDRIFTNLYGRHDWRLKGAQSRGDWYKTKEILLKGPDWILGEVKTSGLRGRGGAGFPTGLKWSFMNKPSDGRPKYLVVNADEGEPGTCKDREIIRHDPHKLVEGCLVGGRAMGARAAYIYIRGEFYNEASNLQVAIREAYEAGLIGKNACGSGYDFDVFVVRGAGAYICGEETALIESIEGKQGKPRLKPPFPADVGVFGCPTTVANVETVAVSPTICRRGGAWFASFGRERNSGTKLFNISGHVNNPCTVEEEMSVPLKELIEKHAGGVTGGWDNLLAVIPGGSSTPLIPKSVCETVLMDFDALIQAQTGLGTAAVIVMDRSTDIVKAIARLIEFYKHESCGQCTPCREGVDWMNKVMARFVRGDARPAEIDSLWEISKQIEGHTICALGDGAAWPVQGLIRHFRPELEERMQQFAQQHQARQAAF

`CCCCCCCCCC[C@H](O)[C@H]1CC[C@@H]([C@@H]2CC[C@H]([C@H](O)CCCCCCCCCC[C@H]3CC(CC(C)O)C(=O)O3)O2)O1` (stereo not given in full) gave a Relative potency in experiment [1] of 1. In the experiment filed under Bos taurus [2], the Ratio amounted to 1.2. Further, the IC50 in experiment [3] is 180 pM; in the experiment listed under Bos taurus [4], 210 pM.

Regarding `CCCCCCCCCC[C@@H](O)[C@@H]1CC[C@@H]([C@@H](O)CC[C@H](O)[C@@H]2CC[C@@H](CCCCCCC[C@@H](O)CC3(O)C(=O)O[C@H](C)[C@H]3O)O2)O1` (single isomer, unassigned), the Ratio in the experiment filed under Bos taurus [2] was determined as 4.6. Further, the IC50 came to 8470 pM in experiment [3] and 38300 pM in the experiment listed under Bos taurus [4]. Further, the Relative potency in the experiment filed under Bos taurus [5] is recorded as 47.1.

`CCCCCCCCCC[C@H](O)[C@H]1CC[C@H]([C@H]2CC[C@H]([C@H](O)CCCCCCCCCCCCC3C(=O)O[C@@H](C)[C@@H]3O)O2)O1` (stereo not given in full) [LAHERRADURIN]: the Ratio in the experiment filed under Bos taurus [2] is on record as 1.6. Further, the concentration for half-maximal inhibition (IC50) in experiment [3] was found to be 180 pM; in the experiment filed under Bos taurus [4], 290 pM. Also, the Relative potency in experiment [6] stood at 1.

On to `CCCCCCCCCC[C@H](O)[C@H]1CC[C@@H]([C@@H]2CC[C@H]([C@H](O)CCCCCCCCCC[C@H]3CC(CC(C)=O)C(=O)O3)O2)O1` (stereo not given in full), for which the Ratio in the experiment filed under Bos taurus [2] stood at 3.7. Besides, the IC50 in experiment [3] was 330 pM; in the experiment listed under Bos taurus [4], 1210 pM. Moreover, in the experiment listed under Bos taurus [5], the Relative potency stood at 1.8.

In the case of `CCCCCCCCCC[C@@H](O)[C@@H]1CC[C@@H]([C@@H](O)CC[C@H](O)[C@@H]2CC[C@@H](CCCCCCC[C@@H](O)CC3=C[C@H](C)OC3=O)O2)O1`, in the experiment filed under Bos taurus [2], the Ratio stood at 2.8. Further, the values for the IC50 (in experiment [3]; in the experiment filed under Bos taurus [4]) were 1840 pM and 5180 pM, respectively. The Relative potency in the experiment filed under Bos taurus [5] is reported as 10.2.

Take `CCCCCCCCCC[C@@H](O)[C@@H]1CC[C@@H]([C@@H](O)CC[C@H](O)[C@@H]2CC[C@@H](CCCCCCC[C@H]3CC(CC(C)=O)C(=O)O3)O2)O1` (stereo not given in full): the Ratio in the experiment listed under Bos taurus [2] is given as 3.5. Also, the IC50 in experiment [3] came out at 830 pM; in the experiment listed under Bos taurus [4], 2880 pM. For the same compound, the Relative potency in the experiment listed under Bos taurus [5] came out at 4.6.

Consider `CCCCCCCCCC[C@H](O)[C@H]1CC[C@@H]([C@@H]2CC[C@H]([C@H](O)CCCCCCCCCC[C@@H](O)CC3(O)C(=O)O[C@@H](C)[C@H]3O)O2)O1` (single isomer, unassigned), for which, in the experiment filed under Bos taurus [2], the Ratio is reported as 2.7. In addition, the results for the 50% inhibitory concentration (IC50) (in experiment [3]; in the experiment filed under Bos taurus [4]) were 210 pM and 560 pM, respectively. This compound gave a Relative potency in the experiment filed under Bos taurus [5] of 1.2.

Turning to `CCCCCCCCCC[C@H](O)[C@H]1CC[C@H]([C@H]2CC[C@H]([C@H](O)CCCCCCCCCCC3C(=O)O[C@@H](C)[C@@H]3O)O2)O1` (stereo not given in full), the Ratio in the experiment filed under Bos taurus [2] is reported as 3.4. Further, the values for the IC50 (in experiment [3]; in the experiment listed under Bos taurus [4]) were 210 pM and 720 pM, respectively. This compound yielded a Relative potency in the experiment listed under Bos taurus [5] of 1.2.

Turning to `CCCCCCCCCC[C@@H](O)[C@@H]1CC[C@@H]([C@@H](O)CC[C@H](O)[C@@H]2CC[C@@H](CCCCCCC[C@@H](O)CC3C[C@H](C)OC3=O)O2)O1` (stereo not given in full), in the experiment listed under Bos taurus [2], the Ratio stood at 2.7. Also, the concentration for half-maximal inhibition (IC50) in experiment [3] came out at 1220 pM; in the experiment listed under Bos taurus [4], 3320 pM. In the experiment filed under Bos taurus [5], this compound registered a Relative potency of 6.8.

As for `CCCCCCCCCC[C@H](O)[C@H]1CC[C@@H]([C@@H]2CC[C@H]([C@H](O)CCCCCCCCCC[C@@H](O)CC3=C[C@H](C)OC3=O)O2)O1` [rolliniastatin-1], the Ratio in the experiment filed under Bos taurus [2] is on record as 1.2. This compound also came in with a half-maximal inhibitory concentration (IC50) in the experiment filed under Bos taurus [4] of 740 pM. The Relative potency in the experiment listed under Bos taurus [5] stood at 3.3.

`CCCCCCCCCC[C@H](O)[C@H]1CC[C@@H]([C@@H]2CC[C@H]([C@H](O)CCCCCCCCCC[C@@H](O)CC3C[C@H](C)OC3=O)O2)O1` (stereo not given in full): in the experiment listed under Bos taurus [2], the Ratio was found to be 1.3. Also, the IC50 in experiment [3] was 430 pM; in the experiment listed under Bos taurus [4], 570 pM. In addition, the Relative potency in the experiment listed under Bos taurus [5] was determined as 2.4.

As to `CCCCCCCCCC[C@@H](O)[C@@H]1CC[C@@H]([C@@H](O)CC[C@H](O)[C@@H]2CC[C@@H](CCCCCCC[C@H]3CC(CC(C)O)C(=O)O3)O2)O1` (stereo not given in full), the Ratio in the experiment listed under Bos taurus [2] worked out at 1.9. Further, the concentration for half-maximal inhibition (IC50) in experiment [3] amounted to 2480 pM; in the experiment filed under Bos taurus [4] it was 4640 pM. This compound also came in with a Relative potency in the experiment listed under Bos taurus [5] of 13.8.

As to `CCCCCCCCCC[C@@H](O)[C@@H]1CC[C@@H]([C@@H](O)CC[C@H](O)[C@@H]2CC[C@@H](CCCCCCC[C@H]3CC(C/C(C)=N/O)C(=O)O3)O2)O1` (stereo not given in full), the Ratio in the experiment listed under Bos taurus [2] stood at 2.6. Moreover, the half-maximal inhibitory concentration (IC50) in experiment [3] stood at 540 pM; in the experiment listed under Bos taurus [4], 1420 pM. In the experiment filed under Bos taurus [5], this compound returned a Relative potency of 3.

As to `CCCCCCCCCC[C@H](O)[C@H]1CC[C@@H]([C@@H]2CC[C@H]([C@H](O)CCCCCCCCCC[C@H]3CC(C/C(C)=N/O)C(=O)O3)O2)O1` (stereo not given in full), in the experiment filed under Bos taurus [2], the Ratio is 1. The IC50 in experiment [3] came to 230 pM; in the experiment listed under Bos taurus [4], 220 pM. Besides, in the experiment listed under Bos taurus [5], the Relative potency was found to be 1.3.

As usually defined, the IC50 is the point on the concentration scale where inhibition reaches its midpoint. Read a low IC50 as greater potency.

The values above are taken from ChEMBL document CHEMBL1134219, “Gamma-lactone-Functionalized antitumoral acetogenins are the most potent inhibitors of mitochondrial complex I” (Bioorg Med Chem Lett, 2001).
